Measured values reported in ChEMBL document CHEMBL1122713, “Isomeric N-methyl-7-deazaguanines: synthesis, structural assignment, and inhibitory activity on xanthine oxidase” (J Med Chem, 1984).

These compounds were tested against Xanthine dehydrogenase/oxidase (Bos taurus, UniProt P80457) (assay: Compound is evaluated for competitive inhibition against xanthine oxidase from cow's milk).
Chain of Xanthine dehydrogenase/oxidase (P80457 whole entry): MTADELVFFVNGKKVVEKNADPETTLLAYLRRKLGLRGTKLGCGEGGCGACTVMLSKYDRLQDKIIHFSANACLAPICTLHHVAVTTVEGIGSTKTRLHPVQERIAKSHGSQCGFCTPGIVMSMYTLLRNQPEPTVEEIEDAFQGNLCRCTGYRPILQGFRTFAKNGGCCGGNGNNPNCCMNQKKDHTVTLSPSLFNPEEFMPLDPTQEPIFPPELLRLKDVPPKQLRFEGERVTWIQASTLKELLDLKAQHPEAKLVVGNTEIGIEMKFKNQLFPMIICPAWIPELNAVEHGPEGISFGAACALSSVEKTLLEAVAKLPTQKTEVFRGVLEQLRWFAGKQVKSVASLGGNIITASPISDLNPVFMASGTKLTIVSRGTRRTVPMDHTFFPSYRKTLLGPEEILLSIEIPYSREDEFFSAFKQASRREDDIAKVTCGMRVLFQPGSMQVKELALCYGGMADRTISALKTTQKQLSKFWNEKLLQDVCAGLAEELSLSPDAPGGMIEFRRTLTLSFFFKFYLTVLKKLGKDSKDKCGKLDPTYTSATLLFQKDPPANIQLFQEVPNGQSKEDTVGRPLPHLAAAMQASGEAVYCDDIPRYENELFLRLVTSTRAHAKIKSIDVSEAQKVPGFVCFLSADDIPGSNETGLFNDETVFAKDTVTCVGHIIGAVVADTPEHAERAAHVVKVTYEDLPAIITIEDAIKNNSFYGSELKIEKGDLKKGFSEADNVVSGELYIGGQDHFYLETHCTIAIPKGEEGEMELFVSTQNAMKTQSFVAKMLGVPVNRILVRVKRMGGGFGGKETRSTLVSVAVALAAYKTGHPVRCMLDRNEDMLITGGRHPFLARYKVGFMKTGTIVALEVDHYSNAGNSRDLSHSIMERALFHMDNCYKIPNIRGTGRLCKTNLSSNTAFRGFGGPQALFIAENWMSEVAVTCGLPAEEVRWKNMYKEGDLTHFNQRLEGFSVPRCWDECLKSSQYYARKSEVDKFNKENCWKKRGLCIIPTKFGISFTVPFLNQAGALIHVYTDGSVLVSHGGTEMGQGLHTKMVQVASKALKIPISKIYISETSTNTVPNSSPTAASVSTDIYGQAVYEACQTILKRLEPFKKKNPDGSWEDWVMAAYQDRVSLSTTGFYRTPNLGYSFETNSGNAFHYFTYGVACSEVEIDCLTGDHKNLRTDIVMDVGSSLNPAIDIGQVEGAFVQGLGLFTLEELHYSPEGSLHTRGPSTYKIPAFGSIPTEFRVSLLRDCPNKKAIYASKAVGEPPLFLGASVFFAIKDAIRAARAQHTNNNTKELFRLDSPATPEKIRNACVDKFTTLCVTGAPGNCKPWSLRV
Work on `Cn1c(N)nc(O)c2ccnc1-2` yielded a Ki of 4.5 µM.
For `Cn1ccc2c(=O)[nH]c(N)nc21`, the Ki was 3 µM.
Work on `Cn1c(N)nc2nccc-2c1O` yielded a Ki of 40 µM.
In the case of `Nc1nc2c(c(=O)[nH]1)CC=N2` [7-DEAZAGUANINE], the Ki is reported as 3 µM.
